# Reference: patent publication US7256215B2, “Crystals of 5-hydroxycarbamimidoyl-2-hydroxybenzenesulfonamide derivative” (Kissei Pharmaceutical Co., Ltd., priority 2002, dated 2007)
# Read-outs that look alike come from different tables or passages of the source.
# Assays:
# [1] = Storage stability test (residual rate by HPLC); format: physicochemical; settings: hydrochloride; for Residual Rate (%): storage at 40° C./90% relative humidity for two months, HPLC; for Storage stability (in words): stored for a long period
# Method: (Storage Stability Test) Stability test was carried out under a storage condition of 40° C./90% relative humidity for two months for test substances. The residual rates of test substances were determined by HPLC according to the following conditions. HPLC Condition: • Detection wavelength; 225 nm • Column; CAPCELL PAK C18, MG 5 μm, 3.0 mm I.D.×250 mm • Column temperature; 35° C. • Mobile phase; • 0.02 mol/L phosphate buffer (pH 6.0): acetonitrile mixed solvent • 0→20 min; 42:58 • 20→40 min; 42:58→70:30 • 40→45 min; 70:30 • Flow rate; 0.5 mL/min
# [2] = Saturated water solubility; format: physicochemical; settings: for solubility: thermodynamic from solid, water
# Method: (Saturated Water Solubility) Approximately 40 mg of test substances is placed in a vessel, and approximately 15 mL of water is added thereto to suspend. The suspensions are warmed at 37° C. with stirring, and approximately 1 mL of aliquots is collected with time. Each of aliquots is filtered through a 0.45 μm filter. Thereafter, 500 μL is taken accurately from the filtrate, and 500 μL of a mixed solvent of water/acetonitrile (1/1) is added thereto to prepare a test solution. Five μL of the test solution is analyzed by a high performance liquid chromatography method according to the following conditions. Among water solubilities at each point of test solutions, the highest concentration is estimated as a saturated water solubility. HPLC Condition: • Detection wavelength; 225 nm • Column; Inertsil ODS-3, 5 μm, 4.6 mm I.D.×250 mm • Column temperature; 30° C. • Mobile phase; • 0.02 mol/L phosphate buffer (pH 3.0): acetonitrile mixed solvent • 0→30 min; 42:58 • Flow rate; […] • Measurement time; 30 min
# [3] = molecular target: T1, activated blood coagulation factor X (Homo sapiens, UniProt P00742); assay: Activated blood coagulation factor X inhibitory activity in plasma of orally dosed rats; format: in vivo, Male Wistar rats; set-up: purchased Calbiochem; settings: rat plasma 30 minutes after oral administration; 6.0 mg/mL suspension in 0.5% methylcellulose, 5.0 mL/kg
# Method: (Measurement of Activated Blood Coagulation Factor X Inhibitory Activity and Prothrombin Time (PT))
# Male Wistar rats aged 6-9 weeks (SLC) fasted overnight were used. Test substances were suspended in 0.5% methylcellulose solution at the concentration of 6.0 mg/mL. Then 5.0 mL/kg of those was orally administrated into the rats. Then, 30 minutes before and after the administration of the test substances, citrated (1:10 dilution, 3.13% sodium citrate) bloods were collected from the jugular vein. Plasma samples were obtained by centrifugation. Effects of test substances on activated blood coagulation factor X and prothrombin time (PT) were investigated using the plasma samples according to the following procedures.
# 1) Activated Blood Coagulation Factor X Inhibitory Activity
# 2.5 μL of plasma sample, 200 μL of 100 mM tris-200 mM NaCl buffer (pH 8.4) and 10 μL of 0.06 U/mL human activated blood coagulation factor X (Calbiochem) in gelatin-glycine buffer were poured into 96 well microplate. […] The reaction was terminated with the addition of 50 μL of 60% acetic acid and absorbance (405 nm) was measured by a microplate reader (SPECTRAmax250, Molecular Devices). […] The inhibitory % of plasma sample was calculated from absorbance of the control as 100% and this value was used as the index of anti-activated blood coagulation factor X activity in plasma.
# Target sequence in this assay (P00742 235-488 limits assumed): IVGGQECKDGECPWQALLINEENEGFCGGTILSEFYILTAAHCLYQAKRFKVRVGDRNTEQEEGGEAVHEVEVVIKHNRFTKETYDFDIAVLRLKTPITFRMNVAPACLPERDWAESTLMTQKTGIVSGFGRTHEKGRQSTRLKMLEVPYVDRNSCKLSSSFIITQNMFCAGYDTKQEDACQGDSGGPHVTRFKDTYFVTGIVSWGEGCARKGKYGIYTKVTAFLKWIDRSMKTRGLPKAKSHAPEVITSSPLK
# Target sequence in this assay (P00742 41-179 limits assumed): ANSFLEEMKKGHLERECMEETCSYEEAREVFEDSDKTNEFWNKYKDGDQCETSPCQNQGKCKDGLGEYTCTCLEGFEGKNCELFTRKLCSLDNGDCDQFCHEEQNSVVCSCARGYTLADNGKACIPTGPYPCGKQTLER
# prothrombin time (PT) = assay: Prothrombin time (PT) in plasma of orally dosed rats; format: in vivo, Male Wistar rats; settings: PT after administration / before administration; rat plasma, oral, 6.0 mg/mL suspension, 5.0 mL/kg, 30 minutes
# Method: (Measurement of Activated Blood Coagulation Factor X Inhibitory Activity and Prothrombin Time (PT)) Male Wistar rats aged 6-9 weeks (SLC) fasted overnight were used. Test substances were suspended in 0.5% methylcellulose solution at the concentration of 6.0 mg/mL. Then 5.0 mL/kg of those was orally administrated into the rats. Then, 30 minutes before and after the administration of the test substances, citrated (1:10 dilution, 3.13% sodium citrate) bloods were collected from the jugular vein. Plasma samples were obtained by centrifugation. Effects of test substances on activated blood coagulation factor X and prothrombin time (PT) were investigated using the plasma samples according to the following procedures. 2) Prothrombin Time (PT). Fifty μL of plasma was put in the process tube and then incubated at 37° C. One minute later, 100 mu L of plasma PT reagent (Boehringer Mannheim) prewarmed at 37° C. was added into the mixture. PT was measured with a coagulometer (ST4, Boehringer Mannheim). The ratio of PT at each time point after administration of the test substance to that of before administration was used as the index of anticoagulation activity.
# [4] = Oral bioavailability (statement, no method given); format: in vivo
# [5] = Storage under ordinary conditions, retention of crystalline form; format: physicochemical; settings: 25° C./60% relative humidity, long period
# [6] = molecular target: T1, activated blood coagulation factor X; assay: Inhibitory activity against activated blood coagulation factor X (statement, no method given); format: biochemical
# Target sequence in this assay (P00742 235-488 limits assumed): as the sequence (P00742 235-488 limits assumed) above
# Target sequence in this assay (P00742 41-179 partner limits assumed): as the sequence (P00742 41-179 limits assumed) above
compound,measurement,setting,value
"CCCCOC(=O)COc1cc(-c2ccccc2S(C)(=O)=O)ccc1CCNS(=O)(=O)c1cc(C(=N)NO)ccc1O.Cl [Reference Example 1, n-butyl[4-[2-[2-hydroxy-5-(N-hydroxycarbamimidoyl)benzenesulfonylamino]ethyl]-2′-methanesulfonylbiphenyl-3-yloxy]acetate hydrochloride]",Residual Rate (%),[1],96.8%
same,Storage stability (in words),[1]; listed as crystalline form A,unsatisfactory stabilities
"CCCCOC(=O)COc1cc(-c2ccccc2S(C)(=O)=O)ccc1CCNS(=O)(=O)c1cc(C(=N)NO)ccc1O.Cl [Example 1, n-butyl[4-[2-[2-hydroxy-5-(N-hydroxycarbamimidoyl)benzenesulfonylamino]ethyl]-2′-methanesulfonylbiphenyl-3-yloxy]acetate hydrochloride]",Water solubility (in words),[2],highly water-soluble
same,solubility,"[2]; 37° C., highest concentration over time, read-out: Saturated water solubility",1600 µg/mL
same,inhibition at 6000 µg/mL (stock),[3],58.2%
same,Ratio of PT,prothrombin time (PT),1.50
same,Residual Rate (%),[1],99.0%
same,Storage stability (in words),[1]; listed as crystalline form B,good storage stabilities
same,Oral bioavailability (in words),[4],good oral bioavailability
same,Stability of crystalline form on storage (in words),[5],without changing its crystalline form
"CCCCOC(=O)COc1cc(-c2ccccc2S(C)(=O)=O)ccc1CCNS(=O)(=O)c1cc(C(=N)NO)ccc1O.Cl.O [Reference Example 2, n-butyl[4-[2-[2-hydroxy-5-(N-hydroxy-carbamimidoyl)benzenesulfonylamino]ethyl]-2′-methanesulfonylbiphenyl-3-yloxy]acetate hydrochloride monohydrate]",Water solubility (in words),[2],poor water solubility
same,solubility,[2]; 37 °C,270 µg/mL
"CCCCOC(=O)COc1cc(-c2ccccc2S(C)(=O)=O)ccc1CCNS(=O)(=O)c1cc(C(=N)NO)ccc1O.Cl [formula (I), n-Butyl[4-[2-[2-hydroxy-5-(N-hydroxycarbamimidoyl)benzenesulfontylamino]ethyl]-2′-methanesulfonylbiphenyl-3-yloxy]acetate hydrochloride]",Inhibitory activities against activated blood coagulation factor X (in words),[6],excellent inhibitory activities
